The text below walks through data of US5792457A, “Antibody recognizing endothelial cell ligand for leukocyte CR3” (priority 1995, dated 1998).

Bounds are passed on as bounds.

The test system of assay [1] is recognition of C3bi by antibody 12.1F9. Nature of the assay: Inhibition of binding of 12.1F9 to E^C3bi by peptides. The note with it: peptides 50 μg/ml; for Adherence index: normalized to control value of 100, 6 experiments. More on the design: species or system human. The text has this:
Values are normalized to a control value of 100; data are expressed as the mean±SD of 6 experiments with duplicate wells.

Assay [2] relates to Factor Xa procoagulant activity on THP-1 cells. In words: Generation of Factor Xa by monocytes (THP-1), clotting assay. The assay is classed as cell-based. The following applies: for reduction of Factor Xa production: 0.5 mM, vs scrambled FHA II, 20 min; for Factor Xa / Clotting time: peptides 0.5 mM; for Clotting time: mean ± SD of at least 3 experiments. How it is done:
Factor Xa generation was determined by a modification of the method of Miletich et al. (1978), J. Biol. Chem. 253: 6908-6916. THP-1 cells (ATCC; […]) resuspended in RPMI 1640 (Bio Whittaker, Walkersville,Md.) were incubated with 100 μM ADP (Sigma), 2.5 mM CaC2, 1 or 5 μg/ml Factor X (Hematologic Technologies Inc.) and 0.5 mM peptides at room temperature. After 20 minutes, 100 μl of the reaction mixture was transferred to 37° C. and supplemented with 100 μl of bovine factor VII- and Factor X-deficient plasma (Sigma). Coagulation was initiated by adding 100 μl of 25 mM CaC2 and the clotting time was determined. Factor Xa procoagulant activity (ng/ml) was calculated by means of a standard curve constructed by serial concentrations of Factor Xa (Hematologic Technologies Inc.) from 50 to 250 ng/ml.

In assay [3] the test system is transendothelial migration of human neutrophils through HUVEC monolayers. Nature of the assay: Transendothelial migration (TEM) of neutrophils. Format: cell-based. The note with it: peptides 0.01 mM, native FHA 1 μM; at least 3 experiments with 6 wells/peptide. The text has this: FIG. 26 is a graphical representation of the inhibition of transendothelial migration of neutrophils by FHA peptide Ca, native FHA and mAb IB4 in a concentration dependent fashion. FHA peptide Ca (.largecircle.); intact FHA (.quadrature.); and mAb IB4 (.tangle-solidup.). Values represent mean±standard deviation of at least 3 experiments with 6 wells/peptide.
Transendothelial migration of neutrophils was studied based on a method described by Muller et al. (1992), J. Exp. Med. 176: 819-828. Briefly, human neutrophils suspended in ice-cold Hanks balanced salt solution (HBSS) containing Ca^++ and Mg^++ (Sigma) were fluoresceinated by adding 3.3 μl/ml 5-(and 6-)carboxyfluorescein diacetate, succinimidyl ester (CFSE, Molecular Probes Inc., Oreg.). After incubation for 30 mins. on ice, neutrophils were washed twice in cold HBSS with Ca^++ and Mg^++ and resuspended in cold Medium 199 (M199, Sigma) to a final concentration of 10^6 /ml. Human umbilical vein endothelial cells were subcultured at confluence into 96-well tissue culture plates (Becton Dickinson Labware, Lincoln Park, N.J.) that were coated with hydrated collagen gel (Vitrogen; Collagen Corporation, Palo Alto, Calif.) and fibronectin. Endothelial cells were stimulated with 10 ng/ml TNF-alpha for 4 hours and washed three times with warm M199. Neutrophils (10^6 /ml) were preincubated with 0.01 mM of peptides or with 1 μM of native FHA in M199 for 5 mins. on ice before they were added in 100 μl aliquots to the endothelial cells. For positive control, neutrophils were pre-incubated with 25 μg/ml anti-CD18 mAb IB4. For negative control, neutrophils were treated with 25 μg/ml mAb W6/32 against HLA class I antigen (Dako, Carpinteria, Calif.). The cells were incubated for 1 hour at 37° C., 5% CO2. To terminate transmigration, the supernatant fluid was aspirated and the wells were filled with warm 1 mM EGTA (Sigma) in HBSS without Ca and Mg. The plates were covered with plate sealers (Dynatech, Alexandria, Va.) and centrifuged in an inverted position at 250 g for 3 mins. at room temperature. To remove residual non-transmigrated neutrophils from the endothelial cells, monolayers were washed twice with 200 μl of warm Hanks solution without Ca and Mg. Fluorescence was quantitated using a fluorescence counter (Millipore Cytofluorm™ 2300). The percentage of transmigrated neutrophils was determined by comparing the amount of fluorescence of test wells with that measured in collagen- and fibronectin-coated wells without endothelial cells. […] Percent inhibition of transendothelial migration of neutrophils was calculated by comparing the number of transmigrated cells in wells containing neutrophils treated with peptide to neutrophils treated with M199 alone and arbitrarily set at 100% transendothelial migration (TEM).
(§1) The procedures for determining the neutrophil adherence to cultured endothelial cells and the transendothelial migration of neutrophils were identical with those of Example 9. Control values were the same as those shown in Example 9.

Assay [4] has as its system neutrophil adherence to human umbilical vein endothelial cells (HUVEC). In words: Adherence of neutrophils to cultured (TNF alpha stimulated) endothelial cells. Format: cell-based. How it is done: FIG. 17 is a bar graph representation of the inhibition of neutrophil adherence to activated endothelial cells by FHA, Factor X- and FHA- derived peptides. The concentration of inhibiting substances was: peptides 0.5 mM, native FHA 0.3 μM. Values represent the mean±standard deviation of 4 experiments with 5 wells/peptide.
FIG. 18 is a graphical representation of the FHA, FHA- or Factor X-peptide concentration effects on the inhibition of neutrophil adherence to activated endothelial cells. FHA peptide II monomer (Square) and trimer (Diamond), Factor X peptide II (Circle) at 10^-9 μM to 0.5 mM; native FHA at 10^-6 to 3×10^2 μM (triangle). Values represent the mean of 3 experiments with 5 wells/peptide (standard deviations <15%).
FIG. 25 is a graphical representation of the inhibition of neutrophil adherence to activated endothelial cells by FHA and FHA peptides. FIG. 25A: Peptide concentrations were 0.5 mM (FHA 0.2 μM). Values represent mean±standard deviation of four experiments with 5 wells/peptide; FIG. 25B represents the mean±standard deviation of triplicate experiments with 5 wells/peptide. Native FHA (.quadrature.); FHA peptide Ca (.largecircle.).
Human umbilical vein endothelial cells (HUVEC, first passage, Clonetics, San Diego, Calif.) were subcultured at confluence into Terasaki tissue culture wells. After 24 hours, confluent monolayers were used for adherence assays. Monolayers were stimulated with 10 ng/ml TNF alpha (Boehringer Mannheim, Indianapolis, Ind.) at 37° C. for four hours. 30 μl of human neutrophils (10^6 /ml) were labeled with fluorescein by the method of Lo et al. (1991), J. ExP. Med. 173 1493-1500, and preincubated for 15 minutes at 37° C. with 20 μl of peptides (0.5 mM in HAP) or HAP (phosphate buffered saline containing 0.5 mg/ml human serum albumin, 3 mM glucose, and 0.3 U/ml aprotinin) as a control buffer. For some experiments, endothelial cells were pretreated from 10 minutes with Factor X or antibodies against Factor X receptor (EPR-1; Altieri et al. (1990), J. Immunol. 145, 246-253) 12H1 and 9D4 (obtained from Dr. D. Altieri, Scripps Research Institute, LaJolla, Calif.) and then washed. Neutrophils were allowed to adhere to the monolayer for 15 mins. at 37° C. and unbound cells were removed by submersion of the plate in PBS buffer. The number of adherent neutrophils was counted in a 40× microscope field and expressed as a percentage of adherence in control wells with neutrophils treated with HAP buffer alone. The mAb IB4 against CD18 (50 μg/ml; Merck Inc., Rahway, N.J.) served as a positive control.
The ability of FHA peptides and anti-CD18 or anti-Factor X receptor antibodies to interact cooperatively to inhibit neutrophil adherence to endothelial cells was assessed by measuring neutrophil adherence to endothelial cells in the presence of antibody as well as antibody plus peptide. […] Anti-Factor X receptor mAb 12H1 (10 μl of ascites) or 9D4 (10 μg/ml) were added to the endothelial cell monolayers 10 min before the assay. The peptides were added at 5 μg/ml. The results are shown in Table 8 where the numerical values are in % of control binding.
as §1

The subject of assay [5] is Factor X binding to CR3. The note with it: cited from earlier work.
Assay [6] concerns CSF leukocytosis. Nature of the assay: Rat meningitis model (LOS): CSF leukocytosis. Format: in vivo, female Wistar rats. The note with it: 4 hours after LOS. As to the method:
The experiments were performed according to established protocols (Wispelway et al., 1988, J. Clin. Invest., 82: 1339-1346). Purified Haemophilus influenzae type b strain DL42 lipooligosaccharide (LOS) was prepared for inoculation by sonication for 30 minutes, dilution to the desired concentration (20 ng/50 μl) in normal saline or PBS, and sonication for an additional 15 to 30 minutes just prior to use.
(§2) Briefly, anesthetized female Wistar rats were placed under a micromanipulator and inoculated intracisternally with a 25 gauge needle. After removal of 50 μl of CSF (without visible blood contamination), rats were inoculated intracisternally with 50 μl (20 ng) of LOS using a 1 ml syringe with a 25 gauge needle. Ten to fifteen minutes after inoculation with LOS, the rats were treated by intravenous administration of the test substance: a solution of an FHA peptide in PBS, a solution of a control peptide in PBS, or an equal volume of PBS alone.
(§3) Three hours after LOS inoculation, 5 μCi of ^125 I-radiolabelled albumin in 50 μl normal saline was administered intravenously. One hour later, CSF was collected via intracisternal puncture and blood samples were collected via intracardiac puncture. CSF leukocytosis was determined by manually counting white blood cells using a hemacytometer, and blood-brain barrier permeability was determined as the percent of radioactivity in whole blood that was present in the CSF. Blood samples were obtained immediately prior to inoculation, immediately prior to treatment, and at 4 hours post-inoculation for determination of peripheral white blood cell concentrations.

Assay [7] relates to B. pertussis. The note with it: in vivo; cited from earlier work.
The test system of assay [8] is blood-brain barrier permeability. Nature of the assay: Rat meningitis model (LOS): blood-brain barrier permeability (125I-albumin). The assay is classed as in vivo, female Wistar rats. The following applies: 100 nmol; percent of radioactivity in whole blood present in CSF. As to the method:
as §2, §3

With YTVSADAIALA [FHA 1408-1418], in assay [1], the “block of binding of 12.1F9 to E^C3bi” value was “up to 60%” and the Adherence index is 21 ± 11.
“GRTRG (UniProt P12255 32-36, looked up, fragment) [FHA III]”: in assay [2], the “reduction of Factor Xa production” value came to 74%, the “Factor Xa” value stood at 43.4 ng/mL and the Clotting time was 36.2 ± 2.7 s. For the same compound, the “% Inhibition of TEM” value in assay [3] came out at 5 ± 6%. Besides, the “inhibition of neutrophil adherence (in words)” value in assay [4] (peptides 0.5 mM (Example 9)) is “less effective than the corresponding Factor X derived peptide”.
Take IDRSMKTRG [Factor X III]: the “inhibition of binding of CR3 bearing cells to Factor X (in words)” value in assay [5] was “competitively inhibit the binding of CR3 bearing tissue culture cells to purified Factor X”. Besides, in assay [2], the “effect on Factor Xa generation (in words)” value was “substantial reduction that did not reach statistical significance”, the “Factor Xa” value was 107.5 ng/mL and the Clotting time was found to be 26.5 ± 2.4 s. Further, in assay [3], the “% Inhibition of TEM” value was 5 ± 7%.
On to “Ac-VEEDTKG-NH2 [scrambled ac/am FHA II, VEEDTKG]”, for which the “Leukocytosis (CSF)” value is 14,287 ± 10,199 cells/ml in assay [6] (600 nmol i.v.) and “approximately 14,000 cells/ml” in assay [6] (600 nmol i.v., listed as control peptide (scrambled ac/am FHA II)).
On to `OC[C@H]1O[C@@H](O[C@H]2[C@H](O)[C@@H](O)C(O)O[C@@H]2CO)[C@H](O)[C@@H](O)[C@H]1O` (stereo partly drawn) [Lactose], for which, in assay [7], the “colonization of rabbit lung (in words)” value is “decrease colonization of rabbit lung”.
In assay [1], “TRYRGDQDATMS [C3/12, reference compound]” registered an Adherence index of 127 ± 27.
For the compound YTVAIAGYALA [C3-pep 1187-1197], in assay [1], the “block of binding of 12.1F9 to E^C3bi” value is listed as “up to 60%” and the Adherence index amounted to 30 ± 16.
Turning to GLIQGRSVKVD [FHA Ib], in assay [2], the “reduction of Factor Xa production” value is 81%, the “Factor Xa” value is 31.3 ng/mL and the Clotting time was found to be 38.0 ± 7.6 s. The “% Inhibition of TEM” value in assay [3] is 7 ± 10%.
Take IDVPQHGGAMRDLGIAQGKD [scrambled FHA Ca]: the BBB permeability in assay [8] stood at 6.74 ± 3.48%. Moreover, the “Leukocytosis (CSF)” value is recorded as 20,700 ± 7,400 cells/ml in assay [6] (100 nmol i.v.) and “approximately 20,000 cells/ml” in assay [6] (100 nmol i.v., listed as control peptide (scrambled FHA Ca)).
Regarding “FHA peptide A: synthetic peptide, residues 1055-1099, SEQ ID NO: 20 (IGALKAGAVEAASPRRARRALRQDFFTPGSVVVRAQGNVTVGRGD; UniProt P12255 1055-1099, looked up, fragment)”, the “inhibition of neutrophil adherence” value in assay [4] (45/50-mer peptides, FHA peptide C 1 mg/ml, 0.2 mM) is given as less than 15%.
As for VTVGRGDPAQG [FHA RGD], in assay [1], the Adherence index is 85 ± 9.
For `CC(=O)N[C@@H](CC(C)C)C(=O)N[C@@H](CC(C)C)C(=O)N[C@H](C=O)CCCNC(=N)N` [Leupeptin, reference compound], the “Factor Xa” value in assay [2] was less than 10.0 ng/mL.
Take GLYQAKRFKVG [Factor X I]: the “inhibition of binding of CR3 bearing cells to Factor X (in words)” value in assay [5] is recorded as “competitively inhibit the binding of CR3 bearing tissue culture cells to purified Factor X”. In assay [2], the “effect on Factor Xa generation (in words)” value is given as “substantial reduction that did not reach statistical significance”, the “Factor Xa” value amounted to 37.8 ng/mL and the Clotting time was 37.0 ± 4.0 s. In addition, in assay [3], the “% Inhibition of TEM” value turned out to be 10 ± 6%.
